These results are taken from US10434094B2, “Combination of checkpoint kinase 1 inhibitors and wee 1 kinase inhibitors” (Array BioPharma Inc., priority 2010, dated 2019).

Like-named read-outs stand apart in the source and are kept apart here.

The subject of data set [1] is HEL92.1.7 cells. Put plainly: cellular viability by CellTiter Blue assay, single agents and matrix combination. Format: cell-based. The following applies: Homo sapiens, HEL 92.1.7, 72 h, single agent, three days of treatment. Here is the method:
HEL92.1.7 cells were plated in 96-well plates and then treated with Compound 2 or MK-1775 as single agents. After three days of treatment, cellular viability was assessed by CellTiter Blue assay (Promega). Data represent the mean±S.E. (n=5 for Compound 2, n=2 for MK-1775). […] HEL92.1.7 cells were plated in 96-well plates and then treated with combinations of Compound 2 and MK-1775 in matrix fashion at the indicated concentrations. Three days after treatment cellular viability was assessed by CellTiter Blue assay. […] Data represent the average of two independent experiments (triplicate plates were averaged for each individual experiment).
For orientation: Alamar Blue is a resazurin reagent that responds to reducing activity.

The conditions of data set [2]: cited from earlier work.

For the compound `CC(C)C(=O)Nc1c[nH]c2ncc(Br)c(N3CCC[C@@H](N)C3)c12` [Compound 2, (R)—N-(4-(3-aminopiperidin-1-yl)-5-bromo-1H-pyrrolo [2,3-b]pyridin-3-yl)isobutyramide], in data set [1], the IC50 was 30 nM.
On to `C=CCn1c(=O)c2cnc(Nc3ccc(N4CCN(C)CC4)cc3)nc2n1-c1cccc(C(C)(C)O)n1` [MK-1775], for which, in data set [1], the IC50 was 103 nM. In addition, the MTD in data set [2] (multiple dose (5 BID doses) in combination with carboplatin (AUC 5), trial ongoing) is 225 mg; in data set [2] (multiple dose (5 BID doses) in combination with cisplatin (75 mg/m^2), trial ongoing), 125 mg; in data set [2] (multiple dose in combination with gemcitabine (1000 mg/m^2), BID day 1), 50 mg; in data set [2] (multiple dose in combination with gemcitabine (1000 mg/m^2), BID day 2), 25 mg; in data set [2] (multiple dose in combination with gemcitabine (1000 mg/m^2), QD day 3) it was 25 mg; in data set [2] (single dose in combination with carboplatin (AUC 5), patients with advanced solid tumors), 325 mg. In addition, the MTD is recorded as 200 mg in data set [2] (single dose in combination with cisplatin (75 mg/m^2), patients with advanced solid tumors) and 200 mg in data set [2] (single dose in combination with gemcitabine (1000 mg/m^2), patients with advanced solid tumors).

By IC50 is commonly meant the concentration at which inhibition is half-maximal.
